Test results published in the NIST ThermoML archive (doi:10.1016/j.fluid.2011.02.010).
± gives the expanded uncertainty stated by the source.

Test: xn = mol fraction of the nth substance listed
Conditions: 101 kPa, Liquid; for speed of sound: Frequency=2 MHz

CC[NH2+]CC.O=S(=O)([O-])O [diethylammonium hydrogen sulfate] + C[S+](C)[O-]
speed of sound (298.15 K, x1 = 0.0569): 1486 ± 9 m/s
speed of sound (298.15 K, x1 = 0.1196): 1476 ± 9 m/s
speed of sound (298.15 K, x1 = 0.189): 1466 ± 9 m/s
speed of sound (298.15 K, x1 = 0.2461): 1460 ± 9 m/s
speed of sound (298.15 K, x1 = 0.308): 1450 ± 9 m/s
speed of sound (298.15 K, x1 = 0.3756): 1444 ± 9 m/s
speed of sound (298.15 K, x1 = 0.4494): 1434 ± 9 m/s
speed of sound (298.15 K, x1 = 0.5306): 1428 ± 9 m/s
speed of sound (298.15 K, x1 = 0.6201): 1424 ± 9 m/s
speed of sound (298.15 K, x1 = 0.6852): 1420 ± 9 m/s
speed of sound (298.15 K, x1 = 0.7552): 1420 ± 9 m/s
speed of sound (298.15 K, x1 = 0.8306): 1426 ± 9 m/s
speed of sound (298.15 K, x1 = 0.912): 1428 ± 9 m/s
speed of sound (298.15 K, x1 = 1): 1432 ± 9 m/s
viscosity (298.15 K, x1 = 0.0569): 2.94 ± 0.24 mPa·s
viscosity (298.15 K, x1 = 0.1196): 4.13 ± 0.32 mPa·s
viscosity (298.15 K, x1 = 0.189): 5.55 ± 0.41 mPa·s
viscosity (298.15 K, x1 = 0.2461): 6.77 ± 0.48 mPa·s
viscosity (298.15 K, x1 = 0.308): 8.15 ± 0.57 mPa·s
viscosity (298.15 K, x1 = 0.3756): 9.66 ± 0.66 mPa·s
viscosity (298.15 K, x1 = 0.4494): 11.38 ± 0.77 mPa·s
viscosity (298.15 K, x1 = 0.5306): 13.31 ± 0.89 mPa·s
viscosity (298.15 K, x1 = 0.6201): 15.49 ± 1 mPa·s
viscosity (298.15 K, x1 = 0.6852): 17.12 ± 1.1 mPa·s
viscosity (298.15 K, x1 = 0.7552): 18.87 ± 1.2 mPa·s
viscosity (298.15 K, x1 = 0.8306): 20.88 ± 1.4 mPa·s
viscosity (298.15 K, x1 = 0.912): 23.1 ± 1.5 mPa·s
mass density (298.15 K, x1 = 1): 1028.39 ± 10 kg/m3
viscosity (298.15 K, x1 = 1): 25.8 ± 1.7 mPa·s
speed of sound (303.15 K, x1 = 0.0569): 1462 ± 9 m/s
speed of sound (303.15 K, x1 = 0.1196): 1452 ± 9 m/s
speed of sound (303.15 K, x1 = 0.189): 1442 ± 9 m/s
speed of sound (303.15 K, x1 = 0.2461): 1434 ± 9 m/s
speed of sound (303.15 K, x1 = 0.308): 1426 ± 9 m/s
speed of sound (303.15 K, x1 = 0.3756): 1418 ± 9 m/s
speed of sound (303.15 K, x1 = 0.4494): 1410 ± 9 m/s
speed of sound (303.15 K, x1 = 0.5306): 1404 ± 9 m/s
speed of sound (303.15 K, x1 = 0.6201): 1400 ± 9 m/s
speed of sound (303.15 K, x1 = 0.6852): 1398 ± 9 m/s
speed of sound (303.15 K, x1 = 0.7552): 1398 ± 9 m/s
speed of sound (303.15 K, x1 = 0.8306): 1400 ± 9 m/s
speed of sound (303.15 K, x1 = 0.9121): 1404 ± 9 m/s
speed of sound (303.15 K, x1 = 1): 1408 ± 9 m/s
viscosity (303.15 K, x1 = 0.0569): 2.53 ± 0.22 mPa·s
viscosity (303.15 K, x1 = 0.1196): 3.48 ± 0.28 mPa·s
viscosity (303.15 K, x1 = 0.189): 4.64 ± 0.35 mPa·s
viscosity (303.15 K, x1 = 0.2461): 5.62 ± 0.41 mPa·s
viscosity (303.15 K, x1 = 0.308): 6.74 ± 0.48 mPa·s
viscosity (303.15 K, x1 = 0.3756): 8.01 ± 0.56 mPa·s
viscosity (303.15 K, x1 = 0.4494): 9.41 ± 0.65 mPa·s
viscosity (303.15 K, x1 = 0.5306): 11.02 ± 0.75 mPa·s
viscosity (303.15 K, x1 = 0.6201): 12.83 ± 0.86 mPa·s
viscosity (303.15 K, x1 = 0.6852): 14.18 ± 0.95 mPa·s
viscosity (303.15 K, x1 = 0.7552): 15.65 ± 1 mPa·s
viscosity (303.15 K, x1 = 0.8306): 17.27 ± 1.1 mPa·s
viscosity (303.15 K, x1 = 0.9121): 19.14 ± 1.3 mPa·s
mass density (303.15 K, x1 = 1): 1023.97 ± 10 kg/m3
viscosity (303.15 K, x1 = 1): 21.3 ± 1.4 mPa·s
speed of sound (308.15 K, x1 = 0.0569): 1446 ± 9 m/s
speed of sound (308.15 K, x1 = 0.1196): 1436 ± 9 m/s
speed of sound (308.15 K, x1 = 0.189): 1428 ± 9 m/s
speed of sound (308.15 K, x1 = 0.2461): 1418 ± 9 m/s
speed of sound (308.15 K, x1 = 0.308): 1410 ± 9 m/s
speed of sound (308.15 K, x1 = 0.3756): 1402 ± 9 m/s
speed of sound (308.15 K, x1 = 0.4494): 1396 ± 8 m/s
speed of sound (308.15 K, x1 = 0.5306): 1388 ± 8 m/s
speed of sound (308.15 K, x1 = 0.6201): 1384 ± 8 m/s
speed of sound (308.15 K, x1 = 0.6852): 1384 ± 8 m/s
speed of sound (308.15 K, x1 = 0.7552): 1382 ± 8 m/s
speed of sound (308.15 K, x1 = 0.8306): 1384 ± 9 m/s
speed of sound (308.15 K, x1 = 0.9121): 1388 ± 9 m/s
speed of sound (308.15 K, x1 = 1): 1392 ± 9 m/s
viscosity (308.15 K, x1 = 0.0569): 2.33 ± 0.21 mPa·s
viscosity (308.15 K, x1 = 0.1196): 3.16 ± 0.26 mPa·s
viscosity (308.15 K, x1 = 0.189): 4.12 ± 0.32 mPa·s
viscosity (308.15 K, x1 = 0.2461): 4.94 ± 0.37 mPa·s
viscosity (308.15 K, x1 = 0.308): 5.85 ± 0.43 mPa·s
viscosity (308.15 K, x1 = 0.3756): 6.86 ± 0.49 mPa·s
viscosity (308.15 K, x1 = 0.4494): 8.02 ± 0.56 mPa·s
viscosity (308.15 K, x1 = 0.5306): 9.35 ± 0.65 mPa·s
viscosity (308.15 K, x1 = 0.6201): 10.89 ± 0.74 mPa·s
viscosity (308.15 K, x1 = 0.6852): 12.06 ± 0.82 mPa·s
viscosity (308.15 K, x1 = 0.7552): 13.39 ± 0.9 mPa·s
viscosity (308.15 K, x1 = 0.8306): 14.84 ± 0.99 mPa·s
viscosity (308.15 K, x1 = 0.9121): 16.38 ± 1.1 mPa·s
mass density (308.15 K, x1 = 1): 1020.54 ± 10 kg/m3
viscosity (308.15 K, x1 = 1): 18.1 ± 1.2 mPa·s
speed of sound (318.15 K, x1 = 0.0569): 1414 ± 9 m/s
speed of sound (318.15 K, x1 = 0.1196): 1404 ± 8 m/s
speed of sound (318.15 K, x1 = 0.189): 1392 ± 8 m/s
speed of sound (318.15 K, x1 = 0.2461): 1386 ± 8 m/s
speed of sound (318.15 K, x1 = 0.308): 1378 ± 8 m/s
speed of sound (318.15 K, x1 = 0.3756): 1370 ± 8 m/s
speed of sound (318.15 K, x1 = 0.4494): 1362 ± 8 m/s
speed of sound (318.15 K, x1 = 0.5306): 1356 ± 8 m/s
speed of sound (318.15 K, x1 = 0.6201): 1350 ± 8 m/s
speed of sound (318.15 K, x1 = 0.6852): 1348 ± 8 m/s
speed of sound (318.15 K, x1 = 0.7552): 1346 ± 8 m/s
speed of sound (318.15 K, x1 = 0.8306): 1348 ± 8 m/s
speed of sound (318.15 K, x1 = 0.9121): 1352 ± 8 m/s
speed of sound (318.15 K, x1 = 1): 1356 ± 8 m/s
viscosity (318.15 K, x1 = 0.0569): 2 ± 0.19 mPa·s
viscosity (318.15 K, x1 = 0.1196): 2.63 ± 0.23 mPa·s
viscosity (318.15 K, x1 = 0.189): 3.33 ± 0.27 mPa·s
viscosity (318.15 K, x1 = 0.2461): 3.93 ± 0.31 mPa·s
viscosity (318.15 K, x1 = 0.308): 4.59 ± 0.35 mPa·s
viscosity (318.15 K, x1 = 0.3756): 5.34 ± 0.39 mPa·s
viscosity (318.15 K, x1 = 0.4494): 6.22 ± 0.45 mPa·s
viscosity (318.15 K, x1 = 0.5306): 7.19 ± 0.51 mPa·s
viscosity (318.15 K, x1 = 0.6201): 8.32 ± 0.58 mPa·s
viscosity (318.15 K, x1 = 0.6852): 9.16 ± 0.63 mPa·s
viscosity (318.15 K, x1 = 0.7552): 10.1 ± 0.69 mPa·s
viscosity (318.15 K, x1 = 0.8306): 11.1 ± 0.76 mPa·s
viscosity (318.15 K, x1 = 0.9121): 12.3 ± 0.83 mPa·s
mass density (318.15 K, x1 = 1): 1012.68 ± 10 kg/m3
viscosity (318.15 K, x1 = 1): 13.61 ± 0.92 mPa·s
speed of sound (328.15 K, x1 = 0.0569): 1400 ± 8 m/s
speed of sound (328.15 K, x1 = 0.1196): 1406 ± 8 m/s
speed of sound (328.15 K, x1 = 0.189): 1392 ± 8 m/s
speed of sound (328.15 K, x1 = 0.2461): 1382 ± 8 m/s
speed of sound (328.15 K, x1 = 0.308): 1372 ± 8 m/s
speed of sound (328.15 K, x1 = 0.3756): 1362 ± 8 m/s
speed of sound (328.15 K, x1 = 0.4494): 1352 ± 8 m/s
speed of sound (328.15 K, x1 = 0.5306): 1342 ± 8 m/s
speed of sound (328.15 K, x1 = 0.6201): 1332 ± 8 m/s
speed of sound (328.15 K, x1 = 0.6852): 1326 ± 8 m/s
speed of sound (328.15 K, x1 = 0.7552): 1322 ± 8 m/s
speed of sound (328.15 K, x1 = 0.8306): 1320 ± 8 m/s
speed of sound (328.15 K, x1 = 0.9121): 1322 ± 8 m/s
speed of sound (328.15 K, x1 = 1): 1324 ± 8 m/s
viscosity (328.15 K, x1 = 0.0569): 1.6 ± 0.16 mPa·s
viscosity (328.15 K, x1 = 0.1196): 2.24 ± 0.2 mPa·s
viscosity (328.15 K, x1 = 0.189): 2.95 ± 0.25 mPa·s
viscosity (328.15 K, x1 = 0.2461): 3.51 ± 0.28 mPa·s
viscosity (328.15 K, x1 = 0.308): 4.12 ± 0.32 mPa·s
viscosity (328.15 K, x1 = 0.3756): 4.77 ± 0.36 mPa·s
viscosity (328.15 K, x1 = 0.4494): 5.46 ± 0.4 mPa·s
viscosity (328.15 K, x1 = 0.5306): 6.21 ± 0.45 mPa·s
viscosity (328.15 K, x1 = 0.6201): 7.02 ± 0.5 mPa·s
viscosity (328.15 K, x1 = 0.6852): 7.57 ± 0.53 mPa·s
viscosity (328.15 K, x1 = 0.7552): 8.17 ± 0.57 mPa·s
viscosity (328.15 K, x1 = 0.8306): 8.8 ± 0.61 mPa·s
viscosity (328.15 K, x1 = 0.9121): 9.48 ± 0.66 mPa·s
mass density (328.15 K, x1 = 1): 1004.83 ± 10 kg/m3
viscosity (328.15 K, x1 = 1): 10.2 ± 0.7 mPa·s
